From patent publication US10787442B2, “Modulators of indoleamine 2,3-dioxygenase” (GLAXOSMITHKLINE INTELLECTUAL PROPERTY DEVELOPMENT LIMITED, priority 2016, dated 2020) come the findings set out here.

The structures appear in SMILES notation.

In this data set the test system is human peripheral blood mononuclear cells (PBMC). The data set can be described thus: PBMC cytotoxicity assay (CellTiter-Glo). Format: cell-based. The following applies: cytotoxicity in stimulated PBMC, recorded as pCC50. Here is the method: Compounds of the present invention were tested via high-throughput cellular assays utilizing detection of kynurenine via mass spectrometry and cytotoxicity as end-points. […] Compounds with IDO1 inhibitory properties decreased the amount of kynurenine produced by the cells via the tryptophan catabolic pathway. Cellular toxicity due to the effect of compound treatment was measured using CellTiter-Glo® reagent (CTG) (Promega Corporation, Madison, Wis.), which is based on luminescent detection of ATP, an indicator of metabolically active cells.
In preparation for the assays, test compounds were serially diluted 3-fold in DMSO from a typical top concentration of 1 mM or 5 mM and plated at 0.5 μL in 384-well, polystyrene, clear bottom, tissue culture treated plates with lids (Greiner Bio-One, Kremsmünster, Austria) to generate 11-point dose response curves. Low control wells (0% kynurenine or 100% cytotoxicity) contained either 0.5 μL of DMSO in the presence of unstimulated (−IFN-γ/−LPS) PBMCs for the mass spectrometry assay or 0.5 μL of DMSO in the absence of cells for the cytotoxicity assay, and high control wells (100% kynurenine or 0% cytotoxicity) contained 0.5 μL of DMSO in the presence of stimulated (+IFN-γ/+LPS) PBMCs for both the mass spectrometry and cytotoxicity assays.
Frozen stocks of PBMCs were washed and recovered in RPMI 1640 medium (Thermo Fisher Scientific, Inc., Waltham, Mass.) supplemented with 10% v/v heat-inactivated fetal bovine serum (FBS) (Thermo Fisher Scientific, Inc., Waltham, Mass.), and 1× penicillin-streptomycin antibiotic solution (Thermo Fisher Scientific, Inc., Waltham, Mass.). The cells were diluted to 1,000,000 cells/mL in the supplemented RPMI 1640 medium. 50 μL of either the cell suspension, for the mass spectrometry assay, or medium alone, for the cytotoxicity assay, were added to the low control wells, on the previously prepared 384-well compound plates, resulting in 50,000 cells/well or 0 cells/well respectively. IFN-γ and LPS were added to the remaining cell suspension at final concentrations of 100 ng/ml and 50 ng/ml respectively, and 50 μL of the stimulated cells were added to all remaining wells on the 384-well compound plates. The plates, with lids, were then placed in a 37° C., 5% CO2 humidified incubator for 2 days.
Following incubation, the 384-well plates were removed from the incubator and allowed to equilibrate to room temperature for 30 minutes. For the cytotoxicity assay, CellTiter-Glo® was prepared according to the manufacturer's instructions, and 40 μL were added to each plate well. After a twenty minute incubation at room temperature, luminescence was read on an EnVision® Multilabel Reader (PerkinElmer Inc., Waltham, Mass.). For the mass spectrometry assay, 10 μL of supernatant from each well of the compound-treated plates were added to 40 μL of acetonitrile, containing 10 μM of an internal standard for normalization, in 384-well, polypropylene, V-bottom plates (Greiner Bio-One, Kremsmünster, Austria) to extract the organic analytes. Following centrifugation at 2000 rpm for 10 minutes, 10 μL from each well of the acetonitrile extraction plates were added to 90 μL of sterile, distilled H2O in 384-well, polypropylene, V-bottom plates for analysis of kynurenine and the internal standard on the RapidFire 300 (Agilent Technologies, Santa Clara, Calif.) and 4000 QTRAP MS (SCIEX, Framingham, Mass.). MS data were integrated using Agilent Technologies' RapidFire Integrator software, and data were normalized for analysis as a ratio of kynurenine to the internal standard.
A general note: In ATP-based viability assays light output follows the ATP content of the culture.

Take `COCc1ccc(Nc2cc(C(C)CC(=O)O)cnc2N(CC(C)C)C2CCC(OC)CC2)nc1` (stereo not drawn) [Example 47, (3RS)-3-(5-{[5-(methoxymethyl)pyridin-2-yl]amino}-6-[(2-methylpropyl)[(1rs&,4rs&)-4-methoxycyclohexyl]amino]pyridin-3-yl)butanoic acid]: the “PBMC_TOX PXC50” value was below 5.0.

Take `CC(C)CN(CC(C)C)c1ncc([C@H](C)CC(=O)O)cc1Nc1nnc(C(F)(F)F)s1` [Example 51, (3R)-3-{6-[bis(2-methylpropyl)amino]-5-{[5-(trifluoromethyl)-1,3,4-thiadiazol-2-yl]amino}pyridin-3-yl}butanoic acid]: the “PBMC_TOX PXC50” value was below 5.0.

For the molecule `CC(C)CN(c1ncc([C@H](C)CC(=O)O)cc1Nc1ccc(Cl)c(Cl)n1)C1CCOCC1` [Example 68, (3R)-3-{5-[(5,6-dichloropyridin-2-yl)amino]-6-[(2-methylpropyl)(oxan-4-yl)amino]pyridin-3-yl}butanoic acid], the “PBMC_TOX PXC50” value is on record as below 5.0.

Regarding `CC(C)CN(c1ncc([C@H](C)CC(=O)O)cc1Nc1ccc(C#N)nc1)C1CCOCC1` [Example 62, (3R)-3-{5-[(6-cyanopyridin-3-yl)amino]-6-[(2-methylpropyl)(oxan-4-yl)amino]pyridin-3-yl}butanoic acid], the “PBMC_TOX PXC50” value is on record as below 5.0.

Take `COC1CCC(N(CC(C)C)c2ncc(C(C)CC(=O)O)cc2Nc2ccc(C#N)cn2)CC1` (stereo not drawn) [Example 53, (3RS)-3-{5-[(5-cyanopyridin-2-yl)amino]-6-[(2-methylpropyl)[(1rs&,4rs&)-4-methoxycyclohexyl]amino]pyridin-3-yl}butanoic acid]: the “PBMC_TOX PXC50” value is listed as below 5.0.

Take `COC1CCC(N(CC(C)C)c2ncc(C(C)CC(=O)O)cc2Nc2nc(Cl)ns2)CC1` (stereo not drawn) [Example 46, (3RS)-3-{5-[(3-chloro-1,2,4-thiadiazol-5-yl)amino]-6-[(2-methylpropyl)[(1rs&,4rs&)-4-methoxycyclohexyl]amino]pyridin-3-yl}butanoic acid]: the “PBMC_TOX PXC50” value is below 5.0.

Consider `CC(C)CN(c1ncc([C@H](C)CC(=O)O)cc1Nc1ccc(Cl)c(C#N)n1)C1CCOCC1` [Example 70, (3R)-3-{5-[(5-chloro-6-cyanopyridin-2-yl)amino]-6-[(2-methylpropyl)(oxan-4-yl)amino]pyridin-3-yl}butanoic acid], for which the “PBMC_TOX PXC50” value is on record as below 5.0.

With `CC(C)CN(c1ncc([C@H](C)CC(=O)O)cc1Nc1n[nH]c(C(F)(F)F)n1)C1CCOCC1` [Example 42, (3R)-3-{6-[(2-methylpropyl)(oxan-4-yl)amino]-5-{[5-(trifluoromethyl)-1H-1,2,4-triazol-3-yl]amino}pyridin-3-yl}butanoic acid], the “PBMC_TOX PXC50” value is below 5.0.

Consider `CC(C)CN(c1ncc([C@H](C)CC(=O)O)cc1Nc1nc(C(F)(F)F)c[nH]1)C1CCOCC1` [Example 48, (3R)-3-{6-[(2-methylpropyl)(oxan-4-yl)amino]-5-{[4-(trifluoromethyl)-1H-imidazol-2-yl]amino}pyridin-3-yl}butanoic acid], for which the “PBMC_TOX PXC50” value was below 5.0.

Consider `CC(C)CN(CC(C)C)c1nnc(C(C)CC(=O)O)cc1Nc1nc(C(F)(F)F)ns1` (centres unmarked) [Example 72, 3-{6-[bis(2-methylpropyl)amino]-5-{[3-(trifluoromethyl)-1,2,4-thiadiazol-5-yl]amino}pyridazin-3-yl}butanoic acid], for which the “PBMC_TOX PXC50” value is below 5.0.

As for `CC(C)CN(c1ncc([C@H](C)CC(=O)NS(=O)(=O)N(C)C)cc1Nc1ccc(Cl)cn1)C1CCOCC1` [Example 80, (3R)-3-{5-[(5-chloropyridin-2-yl)amino]-6-[(2-methylpropyl)(oxan-4-yl)amino]pyridin-3-yl}-N-(dimethylsulfamoyl)butanamide], the “PBMC_TOX PXC50” value was below 5.0.

For the molecule `CO[C@H]1CC[C@@H](N(CC(C)C)c2ncc([C@H](C)CC(=O)O)cc2Nc2nc(Cl)ns2)CC1` [Example 21, (R)-3-(5-((3-chloro-1,2,4-thiadiazol-5-yl)amino)-6-(isobutyl((1s,4S)-4-methoxycyclohexyl)amino)pyridin-3-yl)butanoic acid], the “PBMC_TOX PXC50” value was below 5.0.

Consider `CC(C)CN(c1ncc([C@H](C)CC(=O)O)cc1Nc1n[nH]c(C(N)=O)n1)C1CCOCC1` [Example 44, (3R)-3-{5-[(5-carbamoyl-1H-1,2,4-triazol-3-yl)amino]-6-[(2-methylpropyl)(oxan-4-yl)amino]pyridin-3-yl}butanoic acid], for which the “PBMC_TOX PXC50” value is below 5.0.

Turning to `CO[C@H]1CC[C@H](N(CC(C)C)c2ncc([C@H](C)CC(=O)O)cc2Nc2nc(C(F)(F)F)ns2)CC1` [Example 26, (R)-3-(6-(isobutyl((1r,4R)-4-methoxycyclohexyl)amino)-5-((3-(trifluoromethyl)-1,2,4-thiadiazol-5-yl)amino)pyridin-3-yl)butanoic acid], the “PBMC_TOX PXC50” value was below 5.0.

With `CC(C)CN(c1ncc([C@H](C)CC(=O)O)cc1Nc1nnc(C2CC2)s1)C1CCOCC1` [Example 38, (3R)-3-{5-[(5-cyclopropyl-1,3,4-thiadiazol-2-yl)amino]-6-[(2-methylpropyl)(oxan-4-yl)amino]pyridin-3-yl}butanoic acid], the “PBMC_TOX PXC50” value was below 5.0.

On to `CC(C)CN(c1ncc([C@H](C)CC(=O)O)cc1Nc1nc(C2CC2)ns1)C1CCOCC1` [Example 41, (3R)-3-{5-[(3-cyclopropyl-1,2,4-thiadiazol-5-yl)amino]-6-[(2-methylpropyl)(oxan-4-yl)amino]pyridin-3-yl}butanoic acid], for which the “PBMC_TOX PXC50” value is below 5.0.

Take `CC(C)CN(c1ncc([C@H](C)CC(=O)O)cc1Nc1cnc(C#N)cn1)C1CCOCC1` [Example 67, (3R)-3-{5-[(5-cyanopyrazin-2-yl)amino]-6-[(2-methylpropyl)(oxan-4-yl)amino]pyridin-3-yl}butanoic acid]: the “PBMC_TOX PXC50” value is below 5.0.

As for `CO[C@H]1CC[C@@H](N(CC(C)C)c2ncc([C@H](C)CC(=O)O)cc2Nc2nc(C(F)(F)F)ns2)CC1` [Example 22, (R)-3-(6-(isobutyl((1s,4S)-4-methoxycyclohexyl)amino)-5-((3-(trifluoromethyl)-1,2,4-thiadiazol-5-yl)amino)pyridin-3-yl) butanoic acid], the “PBMC_TOX PXC50” value is below 5.4.

On to `CC(C)CN(c1ncc([C@H](C)CC(=O)O)cc1Nc1ccc(C(F)(F)F)cn1)C1CCOCC1` [Example 52, (3R)-3-{6-[(2-methylpropyl)(oxan-4-yl)amino]-5-{[5-(trifluoromethyl)pyridin-2-yl]amino}pyridin-3-yl}butanoic acid], for which the “PBMC_TOX PXC50” value was below 5.0.

As for `CO[C@H]1CC[C@@H](N(CC(C)C)c2ncc([C@H](C)CC(=O)O)cc2Nc2ccc(C#N)nc2)CC1` [Example 23, (R)-3-(5-((6-cyanopyridin-3-yl)amino)-6-(isobutyl((1s,4S)-4-methoxycyclohexyl)amino)pyridin-3-yl)butanoic acid], the “PBMC_TOX PXC50” value was below 5.0.

Take `CO[C@H]1CC[C@H](N(CC(C)C)c2ncc([C@H](C)CC(=O)O)cc2Nc2ccc(Cl)cn2)CC1` [Example 27, (R)-3-(5-((5-chloropyridin-2-yl)amino)-6-(isobutyl((1r,4R)-4-methoxycyclohexyl)amino)pyridin-3-yl)butanoic acid]: the “PBMC_TOX PXC50” value is below 5.0.

Regarding `CC(C)CN(c1ncc([C@H](C)CC(=O)O)cc1Nc1n[nH]c(C(F)(F)F)n1)C1CCCCC1` [Example 10, (R)-3-(6-(cyclohexyl(isobutyl)amino)-5-((5-(trifluoromethyl)-1H-1,2,4-triazol-3-yl)amino)pyridin-3-yl)butanoic acid], the “PBMC_TOX PXC50” value was below 5.0.

Regarding `CC(C)CN(c1ncc([C@H](C)CC(=O)NO)cc1Nc1ccc(Cl)cn1)C1CCOCC1` [Example 78, (3R)-3-{5-[(5-chloropyridin-2-yl)amino]-6-[(2-methylpropyl)(oxan-4-yl)amino]pyridin-3-yl}-N-hydroxybutanamide], the “PBMC_TOX PXC50” value is below 5.0.
